# Assay results published in patent US20240150287A1, “N-(BENZOYL)-PHENYLALANINE COMPOUND, PHARMACEUTICAL COMPOSITION CONTAINING SAME, AND USE THEREOF” (Hangzhou Apeloa Medicine Research Institute Co., Ltd., priority 2021, published 2024).
# Target: recombinant human integrin α4β7 (binding to recombinant human MAdCAM-1) (Homo sapiens (Human), UniProt P13612+P26010)
# Test: MAdCAM-1/α4β7 integrin binding inhibition activity evaluation test (α4β7-MAdCAM-1 ELISA)
# Details: plate-coated recombinant human MAdCAM-1, recombinant human α4β7, 2 h room temperature, free form of compound
# Method: EXAMPLE: MADCAM-1/α4β7 INTEGRIN BINDING INHIBITION ACTIVITY EVALUATION TEST (α4β7-MADCAM-1 ELISA)
# Coat the 96-well microplate (Costar) with 50 μL of recombinant human MAdCAM-1 (R&D Systems) solution per well, and incubate overnight (12-18 hours) at 4° C. Wash three times with 150 μL of TBS buffer per well. Block plate with 150 μL per well with blocking buffer for 1 h at 37° C. Wash three times with 150 μL of TBS buffer per well. Dilute the recombinant human integrin α4β7 (R&D Systems) with TBS buffer containing 0.1% bovine serum albumin (BSA), then add to the 96 well plate with 50 μL per well. Add 1 μL of test compound or DMSO, cover, incubate at room temperature for 2 h, wash three times with 150 μL of TBS buffer per well. Dilute the anti-β7 antibody (R&D Systems) with 0.1% BSA TBS buffer, then add to the 96 well plate with 50 μL per well, cover, incubate at room temperature for 1 h, wash three times with 150 μL of TBS buffer per well. Add 50 μL of streptavidin-HRP (R&D Systems) per well, incubate at room temperature for 20 min, wash three times with 150 μL of TBS buffer per well. Add 50 μL of TMB substrate solution (Sigma) per well, incubate at room temperature for 5-30 min, and add 25 μL of stop solution per well to stop the reaction. Finally, measure absorbance at 450 nm with microplate reader (SpectraMax 340PC. Molecular Devices). Repeat the test to find the binding rate of cells at each concentration when the absorbance of the well without the test substance is used as 100%, and calculate the concentration IC50 that causes 50% binding inhibition and summarize the results in Table 1.
# It should be stated that, as a test compound, the free form of the compound synthesized in the above examples is used.
# recombinant human integrin α4β7 (binding to recombinant human MAdCAM-1), sequence (P13612 34-970): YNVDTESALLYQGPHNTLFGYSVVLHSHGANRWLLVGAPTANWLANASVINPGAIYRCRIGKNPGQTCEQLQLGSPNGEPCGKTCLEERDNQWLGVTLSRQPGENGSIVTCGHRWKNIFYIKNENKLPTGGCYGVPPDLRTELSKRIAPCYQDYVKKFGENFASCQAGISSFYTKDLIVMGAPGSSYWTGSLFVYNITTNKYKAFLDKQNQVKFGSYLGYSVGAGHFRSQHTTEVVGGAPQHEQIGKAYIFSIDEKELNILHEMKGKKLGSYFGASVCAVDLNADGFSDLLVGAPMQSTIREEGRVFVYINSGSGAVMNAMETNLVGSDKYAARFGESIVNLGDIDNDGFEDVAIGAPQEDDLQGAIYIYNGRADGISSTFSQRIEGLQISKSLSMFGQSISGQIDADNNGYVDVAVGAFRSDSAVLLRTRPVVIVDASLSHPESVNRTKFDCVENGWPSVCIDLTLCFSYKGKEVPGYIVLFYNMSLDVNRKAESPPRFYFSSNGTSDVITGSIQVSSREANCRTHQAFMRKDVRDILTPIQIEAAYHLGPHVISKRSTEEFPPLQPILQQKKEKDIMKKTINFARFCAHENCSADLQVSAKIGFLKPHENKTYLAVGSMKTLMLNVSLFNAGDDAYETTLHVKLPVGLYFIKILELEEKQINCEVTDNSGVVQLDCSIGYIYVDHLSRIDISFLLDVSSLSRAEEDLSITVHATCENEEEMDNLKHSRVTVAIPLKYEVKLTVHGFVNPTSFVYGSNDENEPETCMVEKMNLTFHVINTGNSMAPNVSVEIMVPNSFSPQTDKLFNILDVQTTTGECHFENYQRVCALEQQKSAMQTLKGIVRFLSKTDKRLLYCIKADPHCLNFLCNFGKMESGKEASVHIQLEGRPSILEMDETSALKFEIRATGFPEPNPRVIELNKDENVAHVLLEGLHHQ
# recombinant human integrin α4β7 (binding to recombinant human MAdCAM-1), sequence (P26010 20-723): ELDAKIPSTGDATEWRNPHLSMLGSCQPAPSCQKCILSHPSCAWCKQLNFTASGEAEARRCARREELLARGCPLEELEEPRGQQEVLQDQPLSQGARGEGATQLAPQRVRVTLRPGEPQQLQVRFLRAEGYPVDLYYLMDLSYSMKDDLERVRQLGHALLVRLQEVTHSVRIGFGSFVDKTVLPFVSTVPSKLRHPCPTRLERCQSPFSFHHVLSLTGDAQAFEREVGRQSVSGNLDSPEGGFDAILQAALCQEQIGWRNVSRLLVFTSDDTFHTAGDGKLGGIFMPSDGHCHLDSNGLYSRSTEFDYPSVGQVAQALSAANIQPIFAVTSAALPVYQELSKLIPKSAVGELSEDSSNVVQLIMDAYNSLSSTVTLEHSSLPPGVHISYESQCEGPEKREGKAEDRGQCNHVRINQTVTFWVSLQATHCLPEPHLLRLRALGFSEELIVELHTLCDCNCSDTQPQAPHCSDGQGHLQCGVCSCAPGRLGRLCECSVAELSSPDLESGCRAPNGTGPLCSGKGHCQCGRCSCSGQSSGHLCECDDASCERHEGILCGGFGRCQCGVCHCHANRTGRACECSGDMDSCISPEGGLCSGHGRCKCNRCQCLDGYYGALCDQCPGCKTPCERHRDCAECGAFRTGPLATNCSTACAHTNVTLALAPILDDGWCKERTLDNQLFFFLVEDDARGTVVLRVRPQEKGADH
row,Compound,IC50 [nM]
1,"CN1CCC(n2c(=O)n(-c3ccc(C[C@H](NC(=O)c4c(F)cccc4Cl)C(=O)O)cc3)c3c(Cl)cccc32)CC1 [Example 29, (S)-3-(4-(7-chloro-3-(1-methylpiperidin-4-yl)-2-oxo-2,3-dihydro-1H-benzo[d]imidazol-1-yl)phenyl)-2-(2-chloro-6-fluorobenzoylamino)propionic acid]",18.1
2,"Cn1c(=O)n(-c2ccc(C[C@H](NC(=O)c3c(F)cccc3Cl)C(=O)O)cc2)c2cc(Cl)c(Cl)cc21 [Example 32, (S)-2-(2-chloro-6-fluorobenzoylamino)-3-(4-(5,6-dichloro-3-methyl-2-oxo-2,3-dihydro-H-benzo[d]imidazol-1-yl)phenyl)propionic acid]",4.19
3,"CN(C)c1ccc2c(c1)n(-c1ccc(C[C@H](NC(=O)c3c(F)cccc3Cl)C(=O)O)cc1)c(=O)n2C [Example 36, (S)-2-(2-chloro-6-fluorobenzoylamino)-3-(4-(6-(dimethylamino)-3-methyl-2-oxo-2,3-dihydro-1H-benzo[d]imidazol-1-yl)phenyl)propionic acid]",1.51
4,"Cn1c(=O)n(-c2ccc(C[C@H](NC(=O)c3c(Cl)cc(Cl)cc3Cl)C(=O)O)cc2)c2c(Cl)cccc21 [Example 38, (S)-3-(4-(7-chloro-3-methyl-2-oxo-2,3-dihydro-1H-benzo[d]imidazol-1-yl)phenyl)-2-(2,4,6-trichlorobenzamido)propionic acid]",27.9
5,Cn1c(=O)n(-c2ccc(C[C@H](NC(=O)c3c(Cl)cc(N4CCOCC4)cc3Cl)C(=O)O)cc2)c2c(Cl)cccc21 [Example 39],3.65

# Results, then the compound that gave them:
row,IC50 [nM],Compound
1,5.34,"Cn1c(=O)n(-c2ccc(C[C@H](NC(=O)c3c(F)cccc3Cl)C(=O)O)cc2)c2c(F)cc(F)cc21 [Example 31, (S)-2-(2-chloro-6-fluorobenzoylamino)-3-(4-(5,7-difluoro-3-methyl-2-oxo-2,3-dihydro-H-benzo[d]imidazol-1-yl)phenyl)propionic acid]"
2,2.7,"Cn1c(=O)n(-c2ccc(C[C@H](NC(=O)c3c(F)cccc3Cl)C(=O)O)cc2)c2c(F)c(F)ccc21 [Example 33, (S)-2-(2-chloro-6-fluorobenzoylamino)-3-(4-(6,7-difluoro-3-methyl-2-exo-2,3-dihydro-1H-benzo[d]imidazol-1-yl)phenyl)propionic acid]"
3,10.5,"Cn1c(=O)n(-c2ccc(C[C@H](NC(=O)c3c(F)cccc3Cl)C(=O)O)cc2)c2ccc(F)c(F)c21 [Example 34, (S)-2-(2-chloro-6-fluorobenzoylamino)-3-(4-(4,5-difluoro-3-methyl-2-oxo-2,3-dihydro-1H-benzo[d]imidazol-1-yl)phenyl)propionic acid]"
4,0.45,"COc1cccc2c1n(-c1ccc(C[C@H](NC(=O)c3c(F)cccc3Cl)C(=O)O)cc1)c(=O)n2C [Example 35, (S)-2-(2-chloro-6-fluorobenzoylamino)-3-(4-(7-methoxy-3-methyl-2-oxo-2,3-dihydro-1H-benzo[d]imidazol-1-yl)phenyl)propionic acid]"
5,5.09,"CN(C)c1ccc2c(c1)n(C)c(=O)n2-c1ccc(C[C@H](NC(=O)c2c(F)cccc2Cl)C(=O)O)cc1 [Example 37, (S)-2-(2-chloro-6-fluorobenzoylamino)-3-(4-(5-(dimethylamino)-3-methyl-2-oxo-2,3-dihydro-1H-benzo[d]imidazol-1-yl)phenyl)propionic acid]"
